Test results: PubChem BioAssay (NCI)
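Interpolation was linear, between the two tested concentrations surrounding the appropriate level; five concentrations were tested over 48 hours in 96-well plates. TGI: concentration producing complete growth inhibition.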

What was measured:
Assay in all cases: NCI-60 cell line screen, 48 h
DU-145 prostate = test system: DU-145 prostate
SF-295 CNS = test system: SF-295 CNS
NCI-H226 lung = test system: NCI-H226 lung
MDA-MB-435 = test system: MDA-MB-435
786-0 renal = test system: 786-0 renal
OVCAR-8 ovarian = test system: OVCAR-8 ovarian
MALME-3M melanoma = test system: MALME-3M melanoma
NCI/ADR-RES ovarian = test system: NCI/ADR-RES ovarian
RXF 393 renal = test system: RXF 393 renal
SK-MEL-5 melanoma = test system: SK-MEL-5 melanoma
HL-60(TB) leukemia = test system: HL-60(TB) leukemia
SF-539 CNS = test system: SF-539 CNS

SMILES | TGI (DU-145 prostate) | TGI (SF-295 CNS) | TGI (NCI-H226 lung) | TGI (MDA-MB-435) | TGI (786-0 renal) | TGI (OVCAR-8 ovarian) | TGI (MALME-3M melanoma) | TGI (NCI/ADR-RES ovarian) | TGI (RXF 393 renal) | TGI (SK-MEL-5 melanoma) | TGI (HL-60(TB) leukemia) | TGI (SF-539 CNS)
CC(C)[Si](OC1=C(C(=O)N(C)c2cccc(Cl)c2)CCCC1)(C(C)C)C(C)C | 25.5 µM | 23.3 µM | 37.7 µM | 29 µM | 34.2 µM | 31 µM | 24.9 µM | 26.3 µM | 18.9 µM | 34.2 µM | 26.3 µM | 40.4 µM
CC1OC(OC2C(O[C@H]3CC[C@@]4(C)C(=CC[C@H]5[C@@H]6C[C@@H]7O[C@]8(CC[C@@H](CO)CO8)[C@@H](C)[C@@H]7[C@@]6(C)CC[C@@H]54)C3)OC(CO)C(O)C2OC2OC(CO)C(O)C(O)C2O)C(O)C(O)C1O (stereo not given in full) | 3.34 µM | – | 3.79 µM | 3.48 µM | 3.3 µM | 3.46 µM | 3.34 µM | 3.76 µM | 3.01 µM | 3.11 µM | 2.8 µM | 3.07 µM
O=C(NNC(=S)Nc1cccc(Cl)c1)c1cc(-c2ccccc2)nc2ccccc12 | 29.5 µM | 24.5 µM | 40.5 µM | 33.4 µM | 31.2 µM | 53.3 µM | 29.9 µM | 56.2 µM | 32.7 µM | 33.2 µM | – | 29.8 µM
CCOC(=O)C(=Cc1[nH]c2ccccc2c1-c1c[nH]c2ccccc12)C(=O)OCC | 27.1 µM | 25.3 µM | 37.5 µM | 18.3 µM | 7.15 µM | 25.8 µM | 34.4 µM | 47.5 µM | 23.3 µM | 29.2 µM | – | 39.1 µM
C[C@]12CCC(=O)O[C@H]1CCCCO2 | > 100 µM | > 100 µM | > 100 µM | > 100 µM | > 100 µM | > 100 µM | > 100 µM | > 100 µM | > 100 µM | > 100 µM | > 100 µM | > 100 µM
CCN(CC)C(=S)N/N=C(/C)c1cccc(/C(C)=N\NC(=S)N(CC)CC)n1 | 4.83 µM | 6.7 µM | 4.77 µM | 14.9 µM | 11.5 µM | 3.19 µM | 7.41 µM | 10.5 µM | 7.03 µM | 8.2 µM | 3.77 µM | 3.28 µM
O=c1cc(-c2ccc(F)cc2)[nH]c2ncc(Cl)cc12 | > 74.4 µM | 78.5 µM | > 56 µM | 9.85 µM | > 100 µM | > 100 µM | > 100 µM | > 88 µM | 89.2 µM | > 100 µM | 15.3 µM | 97.8 µM
O=Cc1c(C(=O)O)[nH]c(=O)[nH]c1=O | > 100 µM | > 100 µM | > 100 µM | > 100 µM | > 100 µM | > 100 µM | > 100 µM | > 100 µM | > 100 µM | > 100 µM | > 100 µM | > 100 µM
CCN(CC)CCNc1nc2ccc([N+](=O)[O-])cc2[n+]([O-])n1 | > 100 µM | 82.1 µM | > 100 µM | 29.5 µM | > 100 µM | 43.1 µM | 4.28 µM | 70.5 µM | > 100 µM | 22.3 µM | 17.9 µM | 54.2 µM
